Data reported in patent US9351965B2, “Indazole derivatives useful as ERK inhibitors” (Merck Sharp & Dohme Corp., priority 2010, dated 2016).

Target: fully phosphorylated, active Mouse ERK2 protein (Mus musculus (Mouse), UniProt P63085)
Test: Active ERK2 (aERK) IMAP assay
Type: biochemical
Conditions: IMAP fluorescence polarization; 30 μM ATP; 30 minute pre-incubation

Chain of fully phosphorylated, active Mouse ERK2 protein (P63085 whole entry): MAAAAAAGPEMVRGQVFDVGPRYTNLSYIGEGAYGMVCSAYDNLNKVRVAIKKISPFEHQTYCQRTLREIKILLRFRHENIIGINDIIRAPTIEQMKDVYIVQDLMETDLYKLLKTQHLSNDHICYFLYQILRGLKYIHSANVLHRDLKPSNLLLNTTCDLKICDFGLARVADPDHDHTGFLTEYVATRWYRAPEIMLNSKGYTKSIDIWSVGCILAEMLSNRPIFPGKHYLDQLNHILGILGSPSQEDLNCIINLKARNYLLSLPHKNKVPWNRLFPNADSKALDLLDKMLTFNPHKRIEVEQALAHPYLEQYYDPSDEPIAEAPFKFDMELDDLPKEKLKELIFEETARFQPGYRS

Molecule Cc1cc(-c2n[nH]c3ccc(C(=O)NC4CCCC(Cn5cc6cc(F)ccc6n5)C4)cc23)ccn1 (mixture of isomers) [compound 124, N-[cis/trans-3-[(5-fluoro-2H-indazol-2-yl)methyl]cyclohexyl]-3-(2-methyl-4-pyridinyl)-1H-indazole-5-carboxamide] has an IC50 of 264 nM.

Work on Cc1cc(-c2n[nH]c3ccc(C(=O)NC4CCCC(F)(Cc5ccccc5F)C4)cc23)ccn1 (racemic) [compound 54, N-[3-fluoro-3-[(2-fluorophenyl)methyl]cyclohexyl]-3-(2-methyl-4-pyridinyl)-1H-indazole-5-carboxamide (racemic)] yielded an IC50 of 1000 nM.

Cc1cc(-c2n[nH]c3ccc(C(=O)N[C@@H]4CCC[C@@](O)(Cn5c(=O)ccc6ccccc65)C4)cc23)ccn1 (relative stereo) [compound 93, N-[cis-3-hydroxy-3-[(2-oxo-1(2h)-quinolinyl)methyl]cyclohex-yl]-3-(2-methyl-4-pyridinyl)-1H-indazole-5-carboxamide] showed an IC50 of 165 nM.

With Cc1cc(-c2n[nH]c3ccc(C(=O)NN4CCCC4CCc4ccccc4)cc23)ccn1 (stereo not shown) [compound 145, 3-(2-methyl-4-pyridinyl)-N-[2-(2-phenylethyl)-1-pynolidinyl]-1H-indazole-5-carboxamide] the IC50 was 28.7 nM.

Cc1cc(-c2n[nH]c3ccc(C(=O)NC4CCCC(CO)(Cc5ccccc5F)C4)cc23)ccn1 (stereo not shown) [compound 133, N-[3-[(2-fluorophenyl)methyl]-3-(hydroxymethyl)cyclohexyl]-3-(2-methyl-4-pyridinyl)-1H-indazole-5-carboxamide] was tested, and the IC50 was 109 nM.

For Cc1cc(-c2n[nH]c3ccc(C(=O)N[C@H]4CCC[C@@](O)(Cn5cc6cc(F)ccc6n5)C4)cc23)ccn1 (relative stereo) [compound 99, N-[trans-3-[(5-fluoro-2H-indazol-2-yl)methyl]-3-hydroxycyclohexyl]-3-(2-methyl-4-pyridinyl)-1H-indazole-5-carboxamide], the IC50 was 1000 nM.

For Cc1nc2ccc(-c3n[nH]c4ccc(C(=O)NC5CCCC(Cn6c(C)nc7ccccc76)C5)cc34)cc2s1 (stereo not shown) [compound 127, N-[3-[(2-methyl-1H-benzimidazol-1-yl)methyl]cyclohexyl]-3-(2-methyl-6-benzothiazolyl)-1H-indazole-5-carboxamide], the IC50 was 1000 nM.

With Cc1cc(-c2n[nH]c3ccc(C(=O)N[C@@H]4CCC[C@](O)(Cn5cc6cccnc6n5)C4)cc23)ccn1 (relative stereo) [compound 73, N-[trans-3-hydroxy-3-(2H-pyrazolo[3,4-b]pyridin-2-ylmethyl)cyclohexyl]-3-(2-methyl-4-pyridinyl)-1H-indazole-5-carboxamide] the IC50 was 616 nM.

Cc1cc(-c2n[nH]c3ccc(C(=O)N[C@H]4CCC[C@](O)(Cn5ncc6c(F)cccc65)C4)cc23)ccn1 (relative stereo) [compound 103, N-[cis-3-[(4-fluoro-1H-indazol-1-yl)methyl]-3-hydroxycyclohexyl]-3-(2-methyl-4-pyridinyl)-1H-indazole-5-carboxamide] was tested, and the IC50 was 21.3 nM.

In the case of Cc1cc(-c2n[nH]c3ccc(C(=O)N[C@@H]4CCC[C@@](O)(Cn5cncn5)C4)cc23)ccn1 (relative stereo) [compound 64, N-[cis-3-hydroxy-3-(1H-1,2,4-triazol-1-ylmethyl)cyclohexyl]-3-(2-methyl-4-pyridinyl)-1H-indazole-5-carboxamide], the IC50 is reported as 99.9 nM.

Molecule Cn1cc2cc(-c3n[nH]c4ccc(C(=O)NC5CCCC(Cn6cnc7ccccc76)C5)cc34)ccc2n1 (stereo not shown) [compound 109, N-[3-(1H-benzimidazol-1-ylmethyl)cyclohexyl]-3-(2-methyl-2H-indazol-5-yl)-1H-indazole-5-carboxamide] has an IC50 of 21.1 nM.

With Cc1cc(-c2n[nH]c3ccc(C(=O)N[C@@H]4CCC[C@](O)(Cn5c(C(F)(F)F)nc6ccccc65)C4)cc23)ccn1 (relative stereo) [compound 67, N-[trans-3-hydroxy-3-[[2-(trifluoromethyl)-1H-benzimidazol-1-yl]methyl]cyclohexyl]-3-(2-methyl-4-pyridinyl)-1H-indazole-5-carboxamide] the IC50 was 436 nM.

Cc1cc(-c2n[nH]c3ccc(C(=O)N[C@@H]4CCC[C@@](O)(Cn5ncc6cccnc65)C4)cc23)ccn1 (relative stereo) [compound 79, N-[cis-3-hydroxy-3-(1H-pyrazolo[3,4-b]pyridin-1-ylmethyl)cyclohexyl]-3-(2-methyl-4-pyridinyl)-1H-indazole-5-carboxamide] gave an IC50 of 8.6 nM.

In the case of Cc1cc(-c2n[nH]c3ccc(C(=O)NC4CCCC(Cn5ncc6cccnc65)C4)cc23)ccn1 (stereo not shown) [compound 114, 3-(2-methyl-4-pyridinyl)-N-[3-(1H-pyrazolo[3,4-b]pyridin-1-ylmethyl)cyclohexyl]-1H-indazole-5-carboxamide], the IC50 is reported as 15.4 nM.

With Cc1cc(-c2n[nH]c3ccc(C(=O)N[C@@H]4CCC[C@@](O)(Cn5cc6ccccc6n5)C4)cc23)ccn1 (relative stereo) [compound 94, N-[cis-3-hydroxy-3-(2H-indazol-2-ylmethyl)cyclohexyl]-3-(2-methyl-4-pyridinyl)-1H-indazole-5-carboxamide] the IC50 was 35 nM.

Molecule Cc1cc(-c2n[nH]c3ccc(C(=O)N[C@@H]4CCC[C@@](O)(Cn5ncccc5=O)C4)cc23)ccn1 (relative stereo) [compound 84, N-[cis-3-hydroxy-3-[(6-oxo-1(6h)-pyridazinyl)methyl]cyclohex-yl]-3-(2-methyl-4-pyridinyl)-1H-indazole-5-carboxamide] has an IC50 of 1000 nM.

Work on O=C(N[C@@H]1CCC[C@](O)(Cc2ccccc2F)C1)c1ccc2[nH]nc(-c3ccc4nccn4c3)c2c1 [compound 15, N-[3(S)-[(2-fluorophenyl)methyl]-3-hydroxy-1(R)-cyclohexyl]-3-imidazo[1,2-a]pyridin-6-yl-1H-indazole-5-carboxamide] yielded an IC50 of 8.6 nM.

In the case of Cc1cc(-c2n[nH]c3ccc(C(=O)NC4CCCC(Oc5ccc(F)cc5F)C4)cc23)ccn1 (single isomer, unassigned) [compound 37, N-[3-(2,4-difluorophenoxy)cyclohexyl]-3-(2-methyl-4-pyridinyl)-1H-indazole-5-carboxamide], the IC50 is reported as 128 nM.

Cc1cc(-c2n[nH]c3ccc(C(=O)NC4CCCC(Oc5ccc(F)cc5F)C4)cc23)ccn1 (single isomer, unassigned) [compound 38, N-[3-(2,4-difluorophenoxy)cyclohexyl]-3-(2-methyl-4-pyridinyl)-1H-indazole-5-carboxamide] was tested, and the IC50 was 476 nM.

Cc1cc(-c2n[nH]c3ccc(C(=O)NC4CCCC(Oc5ccccc5Cl)C4)cc23)ccn1 (single isomer, unassigned) [compound 29, N-[3-(2-chlorophenoxy)cyclohexyl]-3-(2-methyl-4-pyridinyl)-1H-indazole-5-carboxamide] was tested, and the IC50 was 1000 nM.

For Cc1cc(-c2n[nH]c3ccc(C(=O)NN4CCCC(Oc5ccccc5Cl)C4)cc23)ccn1 (stereo not shown) [compound 140, N-[3-(2-chlorophenoxy)-1-piperidinyl]-3-(2-methyl-4-pyridinyl)-1H-indazole-5-carboxamide], the IC50 was 31.3 nM.

Cc1cc(-c2n[nH]c3ccc(C(=O)NC4CCCC(CN5C(=O)Cc6ccccc65)C4)cc23)ccn1 (stereo not shown) [compound 120, N-[3-[(2,3-dihydro-2-oxo-1H-indol-1-yl)methyl]cyclohexyl]-3-(2-methyl-4-pyridinyl)-1H-indazole-5-carboxamide] gave an IC50 of 17.4 nM.

In the case of Cc1cc(-c2n[nH]c3ccc(C(=O)NC4CCCC(CO)(Oc5cccc(F)c5)C4)cc23)ccn1 (single isomer, unassigned) [compound 45, N-[3-(3-fluorophenoxy)-3-(hydroxymethyl)cyclohexyl]-3-(2-methyl-4-pyridinyl)-1H-indazole-5-carboxamide], the IC50 is reported as 187 nM.

Molecule Cc1cc(-c2n[nH]c3ccc(C(=O)NC4CCCC(O)(C(=O)c5ccccc5)C4)cc23)ccn1 (stereo not shown) [compound 53, N-(3-benzoyl-3-hydroxycyclohexyl)-3-(2-methyl-4-pyridinyl)-1H-indazole-5-carboxamide] has an IC50 of 258 nM.

Molecule O=C(NC1CCCC(O)(Cc2ccccc2F)C1)c1ccc2[nH]nc(-c3ccc4ncsc4c3)c2c1 (single isomer, unassigned) [compound 10, 3-(6-benzothiazolyl)-N-[3-[(2-fluorophenyl)methyl]-3-hydroxycyclohexyl]-1H-indazole-5-carboxamide] has an IC50 of 1000 nM.

Molecule Cc1cc(-c2n[nH]c3ccc(C(=O)N[C@H]4CCC[C@@](O)(Cn5cc(C#N)c6ccccc65)C4)cc23)ccn1 (relative stereo) [compound 95, N-[trans-3-[(3-cyano-1H-indol-1-yl)methyl]-3-hydroxycyclohexyl]-3-(2-methyl-4-pyridinyl)-1H-indazole-5-carboxamide] has an IC50 of 1000 nM.

For Cc1cc(-c2n[nH]c3ccc(C(=O)N[C@H]4CCC[C@@](O)(Cn5cc6ccc(C(F)(F)F)cc6n5)C4)cc23)ccn1 (relative stereo) [compound 105, N-[trans-3-hydroxy-3-[[6-(trifluoromethyl)-2H-indazol-2-yl]methyl]cyclohexyl]-3-(2-methyl-4-pyridinyl)-1H-indazole-5-carboxamide], the IC50 was 1000 nM.

With O=C(NC1CCCC(Cn2cncn2)C1)c1ccc2[nH]nc(-c3ccc4nccn4c3)c2c1 (stereo not shown) [compound 111, 3-imidazo[1,2-a]pyridin-6-yl-N-[3-(1H-1,2,4-triazol-1-ylmethyl)cyclohexyl]-1H-indazole-5-carboxamide] the IC50 was 77.2 nM.

Cc1cc(-c2n[nH]c3ccc(C(=O)NC4CCCC(O)(Cc5ccccc5F)C4)cc23)ccn1 (single isomer, unassigned) [compound 1, N-[3-[(2-fluorophenyl)methyl]-3-hydroxycyclo-hexyl]-3-(2-methyl-4-pyridinyl)-1H-indazole-5-carboxamide] gave an IC50 of 589 nM.

With COc1cccc(F)c1C[C@@]1(O)CCC[C@@H](NC(=O)c2ccc3[nH]nc(-c4ccnc(C)c4)c3c2)C1 [compound 22, N-[3(S)-[(2-fluoro-6-methoxyphenyl)methyl]-3-hydroxy-1(R)-cyclohexyl]-3-(2-methyl-4-pyridinyl)-1H-indazole-5-carboxamide] the IC50 was 2 nM.

For Cc1cc(-c2n[nH]c3ccc(C(=O)N[C@@H]4CCCC(F)(Cc5ccccc5F)C4)cc23)ccn1 (single isomer, unassigned; isomer 1) [compound 55], the IC50 was 1000 nM.
